Data from PubChem BioAssay (NCI).
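1) Cells in 96-well plates. 2) Compound, 48 h, 5 concentrations. 3) Linear interpolation between surrounding doses. 4) Unreached endpoint = highest concentration. TGI marks complete inhibition of growth.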

What follows are molecules tested on NCI/ADR-RES ovarian (assay: NCI anticancer screen, dose series, 48 h).

SMILES | TGI
CC1=CCC([C@@](C)(O)CCCC(C)(C)N=C=S)CC1 (some centres not stated) | 38.9 µM
CCN1CN(c2ccccc2)C2(CCN(CC3COc4ccccc4O3)CC2)C1=O (configuration not stated) | > 100 µM
N[C@@H](Cc1ccccc1)C(=O)N1CCC[C@@H]1P(=O)(Oc1ccccc1)Oc1ccccc1 | > 100 µM
O=c1[nH][nH]c(=O)n1CCCCCCn1c(=O)[nH][nH]c1=O | > 100 µM
C[C@H](CCC(=O)O)[C@H]1CC[C@H]2[C@@H]3C(=O)C[C@@H]4C[C@H](O)CC[C@]4(C)[C@H]3C[C@H](O)[C@]12C | > 100 µM
COc1ccc(-c2nc(SCC(=O)NNC(=S)Nc3ccccc3)[nH]c2-c2ccc(OC)cc2)cc1 | > 100 µM
COC(=O)/C=C\C(C#N)(C#N)N=Cc1ccc(C)cc1 | 10.9 µM
CC(c1ccccc1)N1CCN(C(C)c2ccccc2)CC1 (configuration not stated) | > 100 µM
COc1ccc(N2C(=O)CC(=O)N(NC(=O)C(C)Oc3ccccc3C)C2=S)cc1 (configuration not stated) | > 100 µM
COc1cc(OC)cc(C(=O)CC(=O)c2cc(OC)cc(OC)c2)c1 | > 100 µM
O=C1OC(C2Cc3ccc4ccccc4c3C2=O)c2ccccc21 (configuration not stated) | > 100 µM
C/C(=N\N=C1/C(=O)OC(c2ccccc2)=C1C(=O)c1ccccc1)c1ccc([N+](=O)[O-])cc1 | > 100 µM
O=C(O)[C@H]1CCCN1CP(=O)(O)CN1CCC[C@@H]1C(=O)O | > 100 µM
O=S(=O)(O)C(CO)c1ccccc1 (configuration not stated) (tested in a mixture with another compound) | > 100 µM
O=C1c2ccccc2C(=O)N1n1c(Cc2ccc([N+](=O)[O-])cc2)n[nH]c1=O | > 100 µM
Cc1nc(C)c(N2CCN([N+](=O)[O-])CC2)c(=O)[nH]1 | > 100 µM
Cc1nn(-c2ccccc2)c2c1C(c1cc3ccccc3nc1Cl)NC(=O)N2 (configuration not stated) | > 100 µM
Cc1cc(/N=C/c2ccc(N(C)C)cc2)n(-c2ccccc2)n1 | > 100 µM
O=C(/C=C/c1ccccc1)Oc1ccc(C(=O)/C=C/c2ccccc2)cc1 | 21.9 µM
COC(=O)C(Cc1ccc2c(c1)CCC2)Cc1ccc2c(c1)CCC2 | > 100 µM
C/C(C[n+]1ccccc1)=N\N=C(N)N | > 100 µM
O=[N+]([O-])C(=C(Nc1cccc2cccnc12)Nc1cccc2cccnc12)C(Cl)=C(Cl)Cl | > 94 µM

SMILES | TGI
CNc1cc2c(c3ccccc13)C(CCl)CN2C(=O)c1cc2cc(OC)c(OC)c(OC)c2[nH]1 (configuration not stated) | 0.0156 µM
NCCCN1c2ccccc2Sc2ccc(Cl)cc21 | > 10 µM
CCOC(=O)c1cccc(N=Nc2nc[nH]c2/C=C/C(=O)OC)c1 | > 100 µM
O=C(O)CN1CCN2CCCCCN(CC1)CCN(CC(=O)O)CC2 | > 100 µM
Cc1cccc(C)c1NC(=O)C(Cc1c[nH]c2ccccc12)NC(=O)OCc1ccccc1 (configuration not stated) | 40.3 µM
N#CC(C#N)=C1SC(=Nc2ccccc2)C(=Nc2ccccc2)N1c1ccccc1 | 97.1 µM
Cc1ccc(C2=CC(=O)OC(C[P+](c3ccccc3)(c3ccccc3)c3ccccc3)(c3ccccc3)O2)cc1 (configuration not stated) | 40.2 µM
O=c1oc2cc(O)ccc2c(O)c1C(c1ccccc1)c1c(O)c2ccc(O)cc2oc1=O | > 100 µM
O=C1c2cc(-c3ccccc3)cnc2S(=O)(=O)N1c1ccc(Br)cc1 | > 100 µM
O=C(NCP(=O)(Oc1ccccc1)Oc1ccccc1)OCc1ccccc1 | > 100 µM
CC(=NNC(=S)Nc1ccccc1)c1cccc(C(C)=NNC(=S)Nc2ccccc2)n1 | > 100 µM
CC(C)c1cc2c(c(O)c1O)[C@@]1(C(=O)O)CCCC(C)(C)[C@@H]1CC2 | 31.3 µM
COC1=CC(=O)c2c(c(-c3nc(C)cs3)cn2C)C1=O | 31 µM
Cc1c(O)nc(-n2[nH]c3c(c2=O)CCCC3)[nH]c1=O | > 100 µM
C=CCn1c(=O)c(C(=O)Nc2nc(C34CC5CC(CC(C5)C3)C4)cs2)c(O)c2ccccc21 | 76.6 µM
CCOS(C)(=O)=O | > 100 µM
C=CCc1cc(-c2nc(=S)[nH][nH]2)ccc1N=NNc1ccc(C(=O)O)cc1 | > 100 µM
O=C(O)CN1CCNCCN(CC(=O)O)CCN(CC(=O)O)CCNCC1 | > 100 µM
CC(NC(=O)Cc1ccccc1)NC(=O)C(C)C(=O)Nc1ccccc1 (configuration not stated) | > 100 µM
CC(C)(C)[Si](C)(C)OCC1OC(n2ccc(=O)[nH]c2=O)C(O[Si](C)(C)C(C)(C)C)/C1=C/C#N (configuration not stated) | > 42.3 µM
Nc1ccc(N=Nc2c(S(=O)(=O)O)cc3ccccc3c2S(=O)(=O)O)cc1 | > 100 µM

What follows are molecules tested on RPMI-8226 leukemia (assay: NCI anticancer screen, dose series, 48 h).

SMILES | TGI
CC1=CCC([C@@](C)(O)CCCC(C)(C)N=C=S)CC1 (some centres not stated) | 67.3 µM
CCN1CN(c2ccccc2)C2(CCN(CC3COc4ccccc4O3)CC2)C1=O (configuration not stated) | 57.9 µM
N[C@@H](Cc1ccccc1)C(=O)N1CCC[C@@H]1P(=O)(Oc1ccccc1)Oc1ccccc1 | > 100 µM
O=c1[nH][nH]c(=O)n1CCCCCCn1c(=O)[nH][nH]c1=O | > 100 µM
C[C@H](CCC(=O)O)[C@H]1CC[C@H]2[C@@H]3C(=O)C[C@@H]4C[C@H](O)CC[C@]4(C)[C@H]3C[C@H](O)[C@]12C | > 100 µM
COC(=O)/C=C\C(C#N)(C#N)N=Cc1ccc(C)cc1 | 3.52 µM
CC(c1ccccc1)N1CCN(C(C)c2ccccc2)CC1 (configuration not stated) | > 100 µM
COc1ccc(N2C(=O)CC(=O)N(NC(=O)C(C)Oc3ccccc3C)C2=S)cc1 (configuration not stated) | > 100 µM
COc1cc(OC)cc(C(=O)CC(=O)c2cc(OC)cc(OC)c2)c1 | > 100 µM
O=C1OC(C2Cc3ccc4ccccc4c3C2=O)c2ccccc21 (configuration not stated) | 93.3 µM
C/C(=N\N=C1/C(=O)OC(c2ccccc2)=C1C(=O)c1ccccc1)c1ccc([N+](=O)[O-])cc1 | 48.9 µM
O=S(=O)(O)C(CO)c1ccccc1 (configuration not stated) (tested in a mixture with another compound) | > 100 µM
O=C1c2ccccc2C(=O)N1n1c(Cc2ccc([N+](=O)[O-])cc2)n[nH]c1=O | > 100 µM
Cc1nc(C)c(N2CCN([N+](=O)[O-])CC2)c(=O)[nH]1 | > 100 µM
Cc1nn(-c2ccccc2)c2c1C(c1cc3ccccc3nc1Cl)NC(=O)N2 (configuration not stated) | 61.4 µM
Cc1cc(/N=C/c2ccc(N(C)C)cc2)n(-c2ccccc2)n1 | > 100 µM
O=C(/C=C/c1ccccc1)Oc1ccc(C(=O)/C=C/c2ccccc2)cc1 | 15.4 µM
COC(=O)C(Cc1ccc2c(c1)CCC2)Cc1ccc2c(c1)CCC2 | > 100 µM
C/C(C[n+]1ccccc1)=N\N=C(N)N | > 100 µM

SMILES | TGI
O=[N+]([O-])C(=C(Nc1cccc2cccnc12)Nc1cccc2cccnc12)C(Cl)=C(Cl)Cl | > 100 µM
CNc1cc2c(c3ccccc13)C(CCl)CN2C(=O)c1cc2cc(OC)c(OC)c(OC)c2[nH]1 (configuration not stated) | 0.0649 µM
NCCCN1c2ccccc2Sc2ccc(Cl)cc21 | > 10 µM
CCOC(=O)c1cccc(N=Nc2nc[nH]c2/C=C/C(=O)OC)c1 | > 100 µM
O=C(O)CN1CCN2CCCCCN(CC1)CCN(CC(=O)O)CC2 | > 100 µM
Cc1cccc(C)c1NC(=O)C(Cc1c[nH]c2ccccc12)NC(=O)OCc1ccccc1 (configuration not stated) | 55.3 µM
N#CC(C#N)=C1SC(=Nc2ccccc2)C(=Nc2ccccc2)N1c1ccccc1 | > 55.3 µM
Cc1ccc(C2=CC(=O)OC(C[P+](c3ccccc3)(c3ccccc3)c3ccccc3)(c3ccccc3)O2)cc1 (configuration not stated) | 46.1 µM
O=C1c2cc(-c3ccccc3)cnc2S(=O)(=O)N1c1ccc(Br)cc1 | 82.2 µM
O=C(NCP(=O)(Oc1ccccc1)Oc1ccccc1)OCc1ccccc1 | > 100 µM
CC(=NNC(=S)Nc1ccccc1)c1cccc(C(C)=NNC(=S)Nc2ccccc2)n1 | > 31.4 µM
CC(C)c1cc2c(c(O)c1O)[C@@]1(C(=O)O)CCCC(C)(C)[C@@H]1CC2 | 30.3 µM
COC1=CC(=O)c2c(c(-c3nc(C)cs3)cn2C)C1=O | > 22.1 µM
Cc1c(O)nc(-n2[nH]c3c(c2=O)CCCC3)[nH]c1=O | > 100 µM
C=CCn1c(=O)c(C(=O)Nc2nc(C34CC5CC(CC(C5)C3)C4)cs2)c(O)c2ccccc21 | 87.5 µM
C=CCc1cc(-c2nc(=S)[nH][nH]2)ccc1N=NNc1ccc(C(=O)O)cc1 | > 100 µM
O=C(O)CN1CCNCCN(CC(=O)O)CCN(CC(=O)O)CCNCC1 | > 100 µM
CC(NC(=O)Cc1ccccc1)NC(=O)C(C)C(=O)Nc1ccccc1 (configuration not stated) | > 100 µM
CC(C)(C)[Si](C)(C)OCC1OC(n2ccc(=O)[nH]c2=O)C(O[Si](C)(C)C(C)(C)C)/C1=C/C#N (configuration not stated) | > 100 µM

These molecules were tested on HCT-15 colon (assay: NCI anticancer screen, dose series, 48 h).

SMILES | TGI
CC1=CCC([C@@](C)(O)CCCC(C)(C)N=C=S)CC1 (some centres not stated) | 34.2 µM
CCN1CN(c2ccccc2)C2(CCN(CC3COc4ccccc4O3)CC2)C1=O (configuration not stated) | 54.2 µM
N[C@@H](Cc1ccccc1)C(=O)N1CCC[C@@H]1P(=O)(Oc1ccccc1)Oc1ccccc1 | > 100 µM
O=c1[nH][nH]c(=O)n1CCCCCCn1c(=O)[nH][nH]c1=O | > 100 µM
C[C@H](CCC(=O)O)[C@H]1CC[C@H]2[C@@H]3C(=O)C[C@@H]4C[C@H](O)CC[C@]4(C)[C@H]3C[C@H](O)[C@]12C | > 100 µM
COc1ccc(-c2nc(SCC(=O)NNC(=S)Nc3ccccc3)[nH]c2-c2ccc(OC)cc2)cc1 | 52 µM
COC(=O)/C=C\C(C#N)(C#N)N=Cc1ccc(C)cc1 | 6.87 µM
CC(c1ccccc1)N1CCN(C(C)c2ccccc2)CC1 (configuration not stated) | > 100 µM
COc1ccc(N2C(=O)CC(=O)N(NC(=O)C(C)Oc3ccccc3C)C2=S)cc1 (configuration not stated) | > 100 µM
COc1cc(OC)cc(C(=O)CC(=O)c2cc(OC)cc(OC)c2)c1 | > 100 µM
O=C1OC(C2Cc3ccc4ccccc4c3C2=O)c2ccccc21 (configuration not stated) | > 100 µM
C/C(=N\N=C1/C(=O)OC(c2ccccc2)=C1C(=O)c1ccccc1)c1ccc([N+](=O)[O-])cc1 | 67.6 µM
O=C(O)[C@H]1CCCN1CP(=O)(O)CN1CCC[C@@H]1C(=O)O | > 100 µM
O=S(=O)(O)C(CO)c1ccccc1 (configuration not stated) (tested in a mixture with another compound) | > 100 µM
O=C1c2ccccc2C(=O)N1n1c(Cc2ccc([N+](=O)[O-])cc2)n[nH]c1=O | > 100 µM
Cc1nc(C)c(N2CCN([N+](=O)[O-])CC2)c(=O)[nH]1 | > 100 µM
Cc1nn(-c2ccccc2)c2c1C(c1cc3ccccc3nc1Cl)NC(=O)N2 (configuration not stated) | 48.1 µM
Cc1cc(/N=C/c2ccc(N(C)C)cc2)n(-c2ccccc2)n1 | > 100 µM
O=C(/C=C/c1ccccc1)Oc1ccc(C(=O)/C=C/c2ccccc2)cc1 | 17.3 µM
COC(=O)C(Cc1ccc2c(c1)CCC2)Cc1ccc2c(c1)CCC2 | > 100 µM
C/C(C[n+]1ccccc1)=N\N=C(N)N | > 100 µM
